pIC50: −log10 of the molar value.

T1 sequence (Q8N884 161-522): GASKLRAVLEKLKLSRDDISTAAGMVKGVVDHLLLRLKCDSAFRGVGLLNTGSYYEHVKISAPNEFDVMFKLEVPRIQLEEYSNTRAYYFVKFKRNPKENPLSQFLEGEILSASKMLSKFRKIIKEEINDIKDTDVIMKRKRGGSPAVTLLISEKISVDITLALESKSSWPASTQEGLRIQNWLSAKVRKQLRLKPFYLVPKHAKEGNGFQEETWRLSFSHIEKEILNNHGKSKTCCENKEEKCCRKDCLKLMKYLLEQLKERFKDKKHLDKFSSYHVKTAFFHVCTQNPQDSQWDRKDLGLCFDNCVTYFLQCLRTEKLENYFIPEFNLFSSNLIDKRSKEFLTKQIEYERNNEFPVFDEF

This assay concerns the target T1, human cGAS (residues 161-522) (Homo sapiens, UniProt Q8N884).
T1 construct: human cGAS (residues 161-522); made in house
Description: cGAS Activity Assay—Malachite Green. It is filed as biochemical. The note with it: recombinant purified human cGAS 25 nM; 80 μM ATP, 80 μM GTP, 100 nM ISD; 4 hour at RT; phosphate detection by Malachite Green. How it is done: Compounds were tested for cGAS inhibition in a coupled enzymatic assay based on Phosphate detection by Malachite Green. Final assay conditions were 20 mM TRIS pH 7.5 (Applichem), 5 mM MgCl2 (Sigma) and 0.01% BSA (Sigma) supplemented with 80 μM ATP (Sigma), 80 μM GTP (Sigma) and 100 nM Interferon Stimulating DNA (ISD) (Microsynth). Recombinantly expressed purified human cGAS (residues 161-522) was used at 25 nM.
All compounds were prepared as 10 mM stock solutions in DMSO and a 16 pt dilution series in DMSO with a dilution factor of 2.5 was prepared. 1 μL of DMSO dilution series was transferred to 32.3 μL reaction buffer, mixed by pipetting up/down, spun for 1 minute at 3000 rpm and was visually inspected for precipitation. 5 μL of 3-fold enzyme stock solution were transferred to an empty 384-well Black/Clear Flat Bottom Polystyrene NBS (Corning) rows 3-24. Rows 1-2 were filled with assay buffer. Plates were spun 10 seconds at 1000 rpm (164×g). 5 μL of compound intermediate dilution was added and mixed by pipetting up/down to rows 3-24. Rows 1-2 were filled with 3.1% DMSO assay buffer. Plates were spun 10 seconds at 1000 rpm (164×g). 5 μL 3-fold Nucleotide/DNA mix was added to all wells to start the reaction. Plates were spun 10 seconds at 1000 rpm (164×g) and incubated for 4 hour at room temperature (RT) in the dark. 5 μL 4 U/ml PPase (Sigma) were added to all wells. Plates spun 10 seconds at 1000 rpm (164×g). 10 μL BioMol green Solution (Enzo Life Sciences) was added to all wells. Plates spun 10 seconds at 1000 rpm (164×g) and incubated 30 minutes at RT in the dark. Absorbance data was collected 620 nm on an EnVision Multilable Reader (Perkin Elmer) and the following measurement settings were used: excitation filter photometric was 620 nm; excitation from the top; measurement height was 1 mm; number of flashes was 30; number of flashes integrated was 1.
All plates are checked for abnormalities and outliers in the Blank Control (no protein, row 1) and the Neutral Control (no compound, row 2) are excluded using the 3*SD rule. Data was normalized to 0 and 100% by Blank and Neutral Control and each curve was fitted and judged using the 4 parameter logistic equation to determine the IC50 for cGAS inhibition.
Table 13 provides IC50 values (μM) for cGAS inhibition obtained for particular examples of the present invention as measured by the above-described assay.
One may read the pIC50 as −log10 of the IC50, conventionally taken in molar units. For the molecule `Cc1oncc1/C(O)=C(\C#N)C(=O)Nc1ncc(S(C)(=O)=O)c(CCc2ccccc2)n1` [Example 138, (Z)-2-cyano-3-hydroxy-3-(5-methylisoxazol-4-yl)-N-(5-(methylsulfonyl)-4-phenethylpyrimidin-2-yl)acrylamide], the pIC50 is 6.70.

For the molecule `COc1ccc(NC(=O)/C(C#N)=C(\O)c2cnoc2C)nc1` [Example 37, (Z)-2-cyano-3-hydroxy-N-(5-methoxy-2-pyridyl)-3-(5-methylisoxazol-4-yl)prop-2-enamide], the negative logarithm of the IC50 (pIC50) was 6.38.

On to `Cc1oncc1/C(O)=C(\C#N)C(=O)Nc1cccc(S(=O)(=O)c2ccccc2)c1` [Example 49, (Z)-2-cyano-3-hydroxy-3-(5-methylisoxazol-4-yl)-N-(3-(phenylsulfonyl)phenyl) acrylamide], for which the negative logarithm of the IC50 (pIC50) was 5.60.

As for `Cc1oncc1/C(O)=C(\C#N)C(=O)Nc1ncc(CCc2ccccc2)cn1` [Example 102, (Z)-2-cyano-3-hydroxy-3-(5-methylisoxazol-4-yl)-N-(5-phenethylpyrimidin-2-yl)acrylamide], the pIC50 was 6.82.

In the case of `Cc1oncc1/C(O)=C(\C#N)C(=O)Nc1ccc(C(N)=O)cc1` [Example 44, 4-[[(Z)-2-cyano-3-hydroxy-3-(5-methylisoxazol-4-yl)prop-2-enoyl]amino]benzamide], the negative logarithm of the IC50 (pIC50) is 6.62.

Turning to `Cc1oncc1/C(O)=C(\C#N)C(=O)Nc1ccc(Oc2ccc(Cl)cc2)c(Cl)c1` [Example 24, (Z)-N-(3-chloro-4-(4-chlorophenoxy)phenyl)-2-cyano-2-hydroxy-3-(5-methylisoxazol-4-yl)acrylamide], the negative logarithm of the IC50 (pIC50) is 5.36.

Consider `Cc1oncc1/C(O)=C(\C#N)C(=O)Nc1nccc(OCCF)n1` [Example 101, (Z)-2-cyano-N-(4-(2-fluoroethoxy)pyrimidin-2-yl)-3-hydroxy-3-(5-methylisoxazol-4-yl)acrylamide], for which the pIC50 was 6.92.

Turning to `Cc1noc(C)c1NS(=O)(=O)c1ccc(NC(=O)/C(C#N)=C(\O)c2cnoc2C)cc1` [Example 59, (Z)-2-cyano-N-(4-(N-(3,5-dimethylisoxazol-4-yl)sulfamoyl)phenyl)-3-hydroxy-3-(5-methylisoxazol-4-yl)acrylamide], the negative logarithm of the IC50 (pIC50) is 6.35.

In the case of `Cc1oncc1/C(O)=C(\C#N)C(=O)Nc1ccc(S(=O)(=O)c2ccccc2C#N)cc1` [Example 122, (Z)-2-cyano-N-(4-((2-cyanophenyl)sulfonyl)phenyl)-3-hydroxy-3-(5-methylisoxazol-4-yl)acrylamide], the pIC50 is 6.89.

Turning to `COCCOc1cnc(NC(=O)/C(C#N)=C(\O)c2cnoc2C)nc1` [Example 89, (Z)-2-cyano-3-hydroxy-N-(5-(2-methoxyethoxy)pyrimidin-2-yl)-3-(5-methylisoxazol-4-yl)acrylamide], the pIC50 is 7.10.

On to `Cc1oncc1/C(O)=C(\C#N)C(=O)Nc1ccc(S(=O)(=O)Nc2ncccn2)cc1` [Example 45, (Z)-2-cyano-3-hydroxy-3-(5-methylisoxazol-4-yl)-N-[4-(pyrimidin-2-ylsulfamoyl)phenyl]prop-2-enamide], for which the pIC50 was 7.05.

As for `COc1ccc(NC(=O)/C(C#N)=C(\O)c2cnoc2C)cc1` [Example 17, (Z)-2-cyano-3-hydroxy-N-(4-methoxyphenyl)-3-(5-methylisoxazol-4-yl)acrylamide], the pIC50 was 6.19.

Turning to `Cc1oncc1/C(O)=C(\C#N)C(=O)Nc1ccc(Cl)c(C(F)(F)F)c1` [Example 15, (Z)-N-(4-chloro-3-(trifluoromethyl)phenyl)-2-cyano-3-hydroxy-3-(5-methylisoxazol-4-yl)acrylamide], the pIC50 is 5.45.

`CCOc1cnc(NC(=O)/C(C#N)=C(\O)c2cnoc2C)nc1` [Example 98, (Z)-2-cyano-N-(5-ethoxypyrimidin-2-yl)-3-hydroxy-3-(5-methylisoxazol-4-yl)acrylamide]: the negative-log IC50 (pIC50) was 7.10.

The record behind these values is US20230242494A1, “MALONITRILE DERIVATIVES” (Hoffmann-La Roche Inc., priority 2020, published 2023).
